Results reported in ChEMBL document CHEMBL1146889, “Homo-cysteinyl peptide inhibitors of the L1 metallo-beta-lactamase, and SAR as determined by combinatorial library synthesis” (Bioorg Med Chem Lett, 2006).

Experiments:
[1] = biological target: Beta-lactamase L1 (Stenotrophomonas maltophilia) (UniProt P52700); assay: Inhibition of Stenotrophomonas maltophilia L1 metallo beta lactamase at 200 uM
Beta-lactamase L1 = Beta-lactamase L1 (Stenotrophomonas maltophilia, UniProt P52700); assay: Inhibition of Stenotrophomonas maltophilia L1 metallo beta lactamase
Sequence of Beta-lactamase L1 (P52700 whole entry): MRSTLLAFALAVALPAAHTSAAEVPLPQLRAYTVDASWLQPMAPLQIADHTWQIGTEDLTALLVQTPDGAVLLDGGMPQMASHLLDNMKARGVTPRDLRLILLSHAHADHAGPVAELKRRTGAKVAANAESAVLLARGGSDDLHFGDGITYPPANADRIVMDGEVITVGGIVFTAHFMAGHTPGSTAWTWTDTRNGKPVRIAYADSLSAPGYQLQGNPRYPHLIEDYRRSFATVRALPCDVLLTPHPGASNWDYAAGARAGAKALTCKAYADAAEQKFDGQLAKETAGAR

Sequence of Beta-lactamase L1 (Stenotrophomonas maltophilia) (P52700 34-290 limits assumed): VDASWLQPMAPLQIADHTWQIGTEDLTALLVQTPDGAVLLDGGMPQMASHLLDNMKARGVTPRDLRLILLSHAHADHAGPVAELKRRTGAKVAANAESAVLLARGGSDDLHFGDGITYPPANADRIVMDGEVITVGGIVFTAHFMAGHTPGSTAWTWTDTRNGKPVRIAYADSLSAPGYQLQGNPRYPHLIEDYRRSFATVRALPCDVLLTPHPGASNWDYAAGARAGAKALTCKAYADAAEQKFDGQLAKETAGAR

Compound	inhibition [1]	Ki (Beta-lactamase L1)
O=C(NC(CCS)C(=O)N[C@H](Cc1ccccc1)C(=O)O)c1cc2cc(O)ccc2[nH]1 (stereo partly specified)	81%	570 nM
Cc1cc(C(=O)NC(CCS)C(=O)N[C@H](Cc2ccccc2)C(=O)O)cc(C)c1OCc1ccccc1 (stereo partly specified)	81%	200 nM
O=C(NC(CCS)C(=O)N[C@H](Cc1ccccc1)C(=O)O)c1ccc(-c2ccccc2[N+](=O)[O-])o1 (stereo partly specified)	81%	160 nM
O=C(Cc1cccc([N+](=O)[O-])c1)NC(CCS)C(=O)N[C@H](Cc1ccccc1)C(=O)O (stereo partly specified)	81%	1030 nM
O=C(NC(CCS)C(=O)N[C@H](Cc1ccccc1)C(=O)O)c1cc2cccc([N+](=O)[O-])c2[nH]1 (stereo partly specified)	81%	150 nM
Cc1cc(C(=O)NC(CCS)C(=O)N[C@H](Cc2ccccc2)C(=O)O)cc(C)c1O (stereo partly specified)	81%	540 nM
O=C(Cc1ccc(Br)cc1)NC(CCS)C(=O)N[C@H](Cc1ccccc1)C(=O)O (stereo partly specified)	81%	350 nM
O=C(NC(CCS)C(=O)N[C@H](Cc1ccccc1)C(=O)O)c1cc2ccccc2[nH]1 (stereo partly specified)	81%	290 nM
